{"source": "patent US9486447B2", "about": "“Compositions and methods for controlling neuronal excitation” (The General Hospital Corporation, priority 2011, dated 2016)", "key": {"adult zebrafish": {"tested_on": "adult zebrafish", "assay": "405 nm laser illumination of adult and spinalized zebrafish", "type": "in vivo", "description": "Optovin's capacity to function in intact adult animals will impact its suitability for future clinical and research applications. Thus, the effects of 405 nm laser illumination on optovin-treated adult zebrafish were analyzed. […] To determine if fin contraction was voluntary or involuntary, the experiment was repeated using spinalized preparations. Optical control of dorsal fin contraction was preserved in spinalized animals treated with optovin (data not shown). Furthermore, carefully controlled laser illumination of specific regions along the body of spinalized zebrafish produced specific dorsal, ventral, and lateral tail movements reminiscent of those used by intact fish during swimming (data not shown). Because zebrafish TRPA1 is primarily expressed in sensory neurons, these contractions and swimming behaviors likely occur via activation of spinal reflex arcs.\nAdult zebrafish (0.5-1.5 years) were briefly anesthetized in ice water and quickly decapitated with a sharp razor blade. Spinalized preparations were incubated in optovin (50 μM) for 1-2 min prior to testing with laser light stimuli (405 nm, 400 μW mm−2)."}, "[1]": {"assay": "Crossing of the epidermis after topical application", "type": "in vivo, human", "details": "humans as well as zebrafish", "text": "As described herein, photo-sensitive TrpA1 agonists can be bioavailable. […] In some embodiments, a photo-sensitive TrpA1 agonist can be bioavailable when administered systemically. […] In some embodiments, oral administration of a photo-sensitive TrpA1 agonist can be considered for any method described herein.\nPhoto-sensitive TrpA1 agonists described herein can be administered by any delivery method known in the art, including but not limited to, injection; parenteral, intravenous, intramuscular, subcutaneous, transdermal, airway (aerosol), pulmonary, direct application, microsurgery, endoscopic surgery, topically, orally, vaginally and/or by contact with the gastro-intestinal lumen. […] This would agonist to all, or at least a variety of tissues, depending e.g. upon design/modification of the agonist to limit or expand systemic bioavailability such that electromagnetic radiation applied to any desired location would be expected to activate neuronal activity at the site of irradiation. In some embodiments, the photo-sensitive TrpA1 agonist can be administered systemically. In some embodiments, the photo-sensitive TrpA1 agonist can be administered locally."}, "5-HT1B": {"biological_target": "5-HT1B (Homo sapiens, UniProt P28222)", "assay": "NIMH PDSP binding assay", "details": "primary screening, mean of N = 4 determinations", "text": "(§1) To determine if optovin's mechanism of action could be predicted via behavioral profiling^30,32, optovin's behavioral profile was compared to the behavioral profiles of 700 annotated neuroactive compounds tested in triplicate. These compounds include ligands targeting the adrenergic, serotonergic, histaminergic, dopaminergic, cholinergic and glutamatergic pathways. […] To gain insight into optovin's mechanism of action, optovin and two active optovin analogs were profiled using the National Institutes of Mental Health Psychoactive Drug Screening Program (NIMH PDSP) to determine their activities against a panel of human and rodent CNS receptors, channels and transporters.\n(§2) Activity determinations were generously provided by the National Institute of Mental Health's Psychoactive Drug Screening Program, Contract # HHSN-271-2008-00025-C(NIMH PDSP). Complete assay details are found on-line at: http://pdsp.med.unc.edu/UNC-CH %20Protocol %20Book.pdf"}, "5-HT1D": {"biological_target": "5-HT1D (Homo sapiens, UniProt P28221)", "assay": "NIMH PDSP binding assay", "details": "primary screening, mean of N = 4 determinations", "text": "as §1, §2"}, "5-HT2A": {"biological_target": "5-HT2A (Homo sapiens, UniProt P28223)", "assay": "NIMH PDSP binding assay", "details": "primary screening, mean of N = 4 determinations", "text": "as §1, §2"}, "5-HT2B": {"biological_target": "5-HT2B (Homo sapiens, UniProt P41595)", "sequence (P41595 whole entry, species assumed)": "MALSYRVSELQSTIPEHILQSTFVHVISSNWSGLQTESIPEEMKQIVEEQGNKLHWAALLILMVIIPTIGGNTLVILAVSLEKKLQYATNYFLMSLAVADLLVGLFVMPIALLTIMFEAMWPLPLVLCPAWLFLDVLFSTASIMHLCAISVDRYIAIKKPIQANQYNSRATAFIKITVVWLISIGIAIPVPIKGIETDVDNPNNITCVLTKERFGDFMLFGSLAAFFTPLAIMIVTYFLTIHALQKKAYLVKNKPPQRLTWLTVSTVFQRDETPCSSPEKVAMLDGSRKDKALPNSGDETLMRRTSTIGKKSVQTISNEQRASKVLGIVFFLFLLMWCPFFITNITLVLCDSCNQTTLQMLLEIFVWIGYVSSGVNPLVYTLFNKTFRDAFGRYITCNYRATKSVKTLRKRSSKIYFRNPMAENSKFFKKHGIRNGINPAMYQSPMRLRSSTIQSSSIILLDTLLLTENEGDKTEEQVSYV", "assay": "NIMH PDSP binding assay", "details": "primary screening, mean of N = 4 determinations", "text": "as §1, §2"}, "5-HT2C": {"biological_target": "5-HT2C (Homo sapiens, UniProt P28335)", "sequence (P28335 33-458, species assumed)": "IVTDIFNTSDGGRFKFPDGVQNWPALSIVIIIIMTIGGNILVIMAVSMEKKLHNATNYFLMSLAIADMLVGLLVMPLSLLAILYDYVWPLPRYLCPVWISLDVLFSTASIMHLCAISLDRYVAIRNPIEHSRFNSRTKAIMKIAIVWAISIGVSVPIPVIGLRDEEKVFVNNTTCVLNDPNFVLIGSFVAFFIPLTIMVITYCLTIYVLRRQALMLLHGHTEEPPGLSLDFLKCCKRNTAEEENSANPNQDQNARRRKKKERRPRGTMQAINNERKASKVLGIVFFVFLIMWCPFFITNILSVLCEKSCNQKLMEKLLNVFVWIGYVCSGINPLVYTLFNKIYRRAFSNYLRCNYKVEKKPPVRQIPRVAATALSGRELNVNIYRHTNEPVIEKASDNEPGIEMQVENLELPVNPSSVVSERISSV", "assay": "NIMH PDSP binding assay", "details": "primary screening, mean of N = 4 determinations", "text": "as §1, §2"}, "5-HT3": {"biological_target": "5-HT3 (Homo sapiens, UniProt P46098)", "sequence (P46098 24-478, species assumed)": "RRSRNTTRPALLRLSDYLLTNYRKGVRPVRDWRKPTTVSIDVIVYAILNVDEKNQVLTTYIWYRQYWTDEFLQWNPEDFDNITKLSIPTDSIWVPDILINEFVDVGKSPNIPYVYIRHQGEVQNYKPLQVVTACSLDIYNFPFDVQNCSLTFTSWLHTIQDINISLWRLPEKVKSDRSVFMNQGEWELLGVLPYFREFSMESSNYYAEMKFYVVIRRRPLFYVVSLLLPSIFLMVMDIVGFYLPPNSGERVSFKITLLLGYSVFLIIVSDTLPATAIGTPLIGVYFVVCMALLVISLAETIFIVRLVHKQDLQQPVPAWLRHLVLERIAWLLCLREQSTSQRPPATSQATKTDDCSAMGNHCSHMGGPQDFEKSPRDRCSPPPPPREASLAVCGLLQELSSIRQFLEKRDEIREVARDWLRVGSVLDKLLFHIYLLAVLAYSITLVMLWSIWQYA", "assay": "NIMH PDSP binding assay", "details": "primary screening, mean of N = 4 determinations", "text": "as §1, §2"}, "5-HT7": {"biological_target": "5-HT7 (Homo sapiens, UniProt P34969)", "assay": "NIMH PDSP binding assay", "details": "primary screening, mean of N = 4 determinations", "text": "as §1, §2"}, "A2B4": {"biological_target": "A2B4 (Rattus norvegicus, UniProt P12389+P12392)", "assay": "NIMH PDSP binding assay", "details": "primary screening, mean of N = 4 determinations", "text": "as §1, §2"}, "A3B2": {"biological_target": "A3B2 (Rattus norvegicus, UniProt P04757+P12390)", "assay": "NIMH PDSP binding assay", "details": "primary screening, mean of N = 4 determinations", "text": "as §1, §2"}, "A3B4": {"biological_target": "A3B4 (Rattus norvegicus, UniProt P04757+P12392)", "assay": "NIMH PDSP binding assay", "details": "primary screening, mean of N = 4 determinations", "text": "as §1, §2"}, "A4B2": {"biological_target": "A4B2 (Rattus norvegicus, UniProt P09483+P12390)", "sequence (P09483 31-630)": "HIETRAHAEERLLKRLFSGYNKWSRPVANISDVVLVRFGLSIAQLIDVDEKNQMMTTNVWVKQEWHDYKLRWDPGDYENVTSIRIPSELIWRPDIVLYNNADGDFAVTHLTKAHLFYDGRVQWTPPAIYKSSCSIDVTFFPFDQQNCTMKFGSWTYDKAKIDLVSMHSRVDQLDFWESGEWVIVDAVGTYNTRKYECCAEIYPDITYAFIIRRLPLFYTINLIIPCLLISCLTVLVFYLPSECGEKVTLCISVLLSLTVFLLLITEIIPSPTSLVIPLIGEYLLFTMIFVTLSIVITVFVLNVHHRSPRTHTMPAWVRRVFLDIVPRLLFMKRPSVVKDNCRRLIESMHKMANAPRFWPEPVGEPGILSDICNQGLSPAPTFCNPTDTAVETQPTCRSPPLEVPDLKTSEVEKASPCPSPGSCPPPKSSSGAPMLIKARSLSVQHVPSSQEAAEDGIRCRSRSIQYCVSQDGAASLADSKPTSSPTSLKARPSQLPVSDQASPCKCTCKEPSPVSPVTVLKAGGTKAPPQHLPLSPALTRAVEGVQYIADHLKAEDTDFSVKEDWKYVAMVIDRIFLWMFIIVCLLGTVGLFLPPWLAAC", "sequence (P12390 25-500)": "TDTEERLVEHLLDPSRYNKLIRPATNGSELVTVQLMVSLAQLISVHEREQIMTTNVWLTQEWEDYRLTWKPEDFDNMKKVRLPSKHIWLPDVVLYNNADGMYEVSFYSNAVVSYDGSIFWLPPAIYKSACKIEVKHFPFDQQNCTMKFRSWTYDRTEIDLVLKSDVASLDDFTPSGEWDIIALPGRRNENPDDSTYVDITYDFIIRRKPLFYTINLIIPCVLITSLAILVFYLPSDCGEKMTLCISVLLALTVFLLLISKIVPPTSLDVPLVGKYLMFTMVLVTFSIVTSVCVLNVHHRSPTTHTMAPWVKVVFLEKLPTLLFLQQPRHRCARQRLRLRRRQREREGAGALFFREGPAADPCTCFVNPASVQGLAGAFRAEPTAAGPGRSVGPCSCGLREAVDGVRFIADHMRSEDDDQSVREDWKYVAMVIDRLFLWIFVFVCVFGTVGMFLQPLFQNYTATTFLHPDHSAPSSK", "assay": "NIMH PDSP binding assay", "details": "primary screening, mean of N = 4 determinations", "text": "as §1, §2"}, "A4B4": {"biological_target": "A4B4 (Rattus norvegicus, UniProt P09483+P12392)", "assay": "NIMH PDSP binding assay", "details": "primary screening, mean of N = 4 determinations", "text": "as §1, §2"}, "Alpha1D": {"biological_target": "Alpha1D (Homo sapiens, UniProt P25100)", "assay": "NIMH PDSP binding assay", "details": "primary screening, mean of N = 4 determinations", "text": "as §1, §2"}, "Alpha2C": {"biological_target": "Alpha2C (Homo sapiens, UniProt P18825)", "assay": "NIMH PDSP binding assay", "details": "primary screening, mean of N = 4 determinations", "text": "as §1, §2"}, "D1": {"biological_target": "T1, D1 (Homo sapiens, UniProt P21728)", "T1 construct": "NIMH PDSP", "T1 sequence (P21728 whole entry)": "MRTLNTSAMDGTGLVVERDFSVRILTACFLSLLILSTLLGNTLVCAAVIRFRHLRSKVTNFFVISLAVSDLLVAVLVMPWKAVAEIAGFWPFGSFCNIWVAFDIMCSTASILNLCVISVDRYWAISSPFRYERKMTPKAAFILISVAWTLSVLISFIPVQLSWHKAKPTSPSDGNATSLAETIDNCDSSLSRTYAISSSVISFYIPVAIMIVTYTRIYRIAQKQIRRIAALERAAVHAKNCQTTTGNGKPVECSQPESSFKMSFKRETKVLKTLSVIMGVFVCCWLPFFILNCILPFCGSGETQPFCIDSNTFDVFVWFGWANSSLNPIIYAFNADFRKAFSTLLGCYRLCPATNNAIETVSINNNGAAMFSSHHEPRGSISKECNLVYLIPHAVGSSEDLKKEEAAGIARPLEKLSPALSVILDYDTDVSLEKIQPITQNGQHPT", "assay": "NIMH PDSP binding assay", "details": "primary screening, mean of N = 4 determinations", "text": "as §1, §2"}, "D4": {"biological_target": "T2, D4 (Homo sapiens, UniProt P21917)", "T2 construct": "NIMH PDSP", "assay": "NIMH PDSP binding assay", "details": "primary screening, mean of N = 4 determinations", "text": "as §1, §2"}, "D5": {"biological_target": "T3, D5 (Homo sapiens, UniProt P21918)", "T3 construct": "NIMH PDSP", "assay": "NIMH PDSP binding assay", "details": "primary screening, mean of N = 4 determinations", "text": "as §1, §2"}, "DAT": {"biological_target": "T4, DAT (Homo sapiens, UniProt Q01959)", "T4 construct": "NIMH PDSP", "assay": "NIMH PDSP binding assay", "details": "primary screening, mean of N = 4 determinations", "text": "as §1, §2"}, "DOR": {"biological_target": "T5, DOR (Homo sapiens, UniProt P41143)", "T5 construct": "NIMH PDSP", "assay": "NIMH PDSP binding assay", "details": "primary screening, mean of N = 4 determinations", "text": "as §1, §2"}, "GABAA": {"tested_on": "GABAA", "assay": "NIMH PDSP binding assay", "details": "primary screening, mean of N = 4 determinations", "text": "as §1, §2"}, "H2": {"biological_target": "T6, H2 (Homo sapiens, UniProt P25021)", "T6 construct": "NIMH PDSP", "T6 sequence (P25021 whole entry)": "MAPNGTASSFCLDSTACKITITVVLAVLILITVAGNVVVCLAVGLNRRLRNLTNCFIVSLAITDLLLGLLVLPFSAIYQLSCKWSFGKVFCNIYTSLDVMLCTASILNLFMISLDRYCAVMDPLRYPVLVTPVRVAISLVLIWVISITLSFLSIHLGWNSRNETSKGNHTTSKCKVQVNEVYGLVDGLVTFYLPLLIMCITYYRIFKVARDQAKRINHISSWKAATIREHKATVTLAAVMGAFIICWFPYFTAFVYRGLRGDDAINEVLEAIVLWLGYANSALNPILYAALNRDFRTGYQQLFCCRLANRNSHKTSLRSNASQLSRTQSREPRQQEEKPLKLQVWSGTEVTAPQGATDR", "assay": "NIMH PDSP binding assay", "details": "primary screening, mean of N = 4 determinations", "text": "as §1, §2"}, "KOR": {"biological_target": "T7, KOR (Homo sapiens, UniProt P41145)", "T7 construct": "NIMH PDSP", "assay": "NIMH PDSP binding assay", "details": "primary screening, mean of N = 4 determinations", "text": "as §1, §2"}, "M1": {"biological_target": "T8, M1 (Homo sapiens, UniProt P11229)", "T8 construct": "NIMH PDSP", "T8 sequence (P11229 whole entry)": "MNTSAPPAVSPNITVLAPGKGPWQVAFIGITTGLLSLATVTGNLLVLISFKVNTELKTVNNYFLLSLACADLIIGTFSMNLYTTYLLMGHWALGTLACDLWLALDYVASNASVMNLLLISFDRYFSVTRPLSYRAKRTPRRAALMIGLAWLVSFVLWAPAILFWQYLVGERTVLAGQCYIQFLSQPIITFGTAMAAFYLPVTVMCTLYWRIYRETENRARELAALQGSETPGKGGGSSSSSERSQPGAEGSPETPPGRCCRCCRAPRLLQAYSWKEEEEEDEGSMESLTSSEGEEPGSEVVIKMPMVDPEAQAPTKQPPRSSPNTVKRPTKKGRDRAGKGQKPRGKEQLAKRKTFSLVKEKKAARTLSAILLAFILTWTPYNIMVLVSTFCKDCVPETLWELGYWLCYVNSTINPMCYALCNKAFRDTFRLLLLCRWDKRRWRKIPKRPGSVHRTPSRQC", "assay": "NIMH PDSP binding assay", "details": "primary screening, mean of N = 4 determinations", "text": "as §1, §2"}, "M3": {"biological_target": "T9, M3 (Homo sapiens, UniProt P20309)", "T9 construct": "NIMH PDSP", "T9 sequence (P20309 whole entry)": "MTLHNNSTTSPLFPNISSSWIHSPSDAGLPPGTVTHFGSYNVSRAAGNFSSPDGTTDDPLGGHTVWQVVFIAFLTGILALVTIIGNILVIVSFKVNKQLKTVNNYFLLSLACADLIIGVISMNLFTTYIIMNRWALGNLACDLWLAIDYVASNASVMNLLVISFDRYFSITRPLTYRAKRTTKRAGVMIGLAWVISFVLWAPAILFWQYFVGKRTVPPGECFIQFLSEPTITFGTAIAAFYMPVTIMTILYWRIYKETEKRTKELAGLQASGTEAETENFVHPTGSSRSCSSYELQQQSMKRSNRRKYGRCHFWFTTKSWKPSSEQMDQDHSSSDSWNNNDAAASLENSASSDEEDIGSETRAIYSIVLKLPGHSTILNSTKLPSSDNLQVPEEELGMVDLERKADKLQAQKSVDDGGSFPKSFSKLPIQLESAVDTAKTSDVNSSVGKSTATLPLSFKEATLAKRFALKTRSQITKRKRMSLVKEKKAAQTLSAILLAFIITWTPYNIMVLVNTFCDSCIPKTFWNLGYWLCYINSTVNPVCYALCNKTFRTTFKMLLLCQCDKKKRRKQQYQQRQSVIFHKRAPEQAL", "assay": "NIMH PDSP binding assay", "details": "primary screening, mean of N = 4 determinations", "text": "as §1, §2"}, "MOR": {"biological_target": "T10, MOR (Homo sapiens, UniProt P35372)", "T10 construct": "NIMH PDSP", "assay": "NIMH PDSP binding assay", "details": "primary screening, mean of N = 4 determinations", "text": "as §1, §2"}, "PBR": {"biological_target": "PBR (Rattus norvegicus, UniProt P16257)", "assay": "NIMH PDSP binding assay", "details": "primary screening, mean of N = 4 determinations", "text": "as §1, §2"}, "SERT": {"biological_target": "T11, SERT (Homo sapiens, UniProt P31645)", "T11 construct": "NIMH PDSP", "T11 sequence (P31645 whole entry, species assumed)": "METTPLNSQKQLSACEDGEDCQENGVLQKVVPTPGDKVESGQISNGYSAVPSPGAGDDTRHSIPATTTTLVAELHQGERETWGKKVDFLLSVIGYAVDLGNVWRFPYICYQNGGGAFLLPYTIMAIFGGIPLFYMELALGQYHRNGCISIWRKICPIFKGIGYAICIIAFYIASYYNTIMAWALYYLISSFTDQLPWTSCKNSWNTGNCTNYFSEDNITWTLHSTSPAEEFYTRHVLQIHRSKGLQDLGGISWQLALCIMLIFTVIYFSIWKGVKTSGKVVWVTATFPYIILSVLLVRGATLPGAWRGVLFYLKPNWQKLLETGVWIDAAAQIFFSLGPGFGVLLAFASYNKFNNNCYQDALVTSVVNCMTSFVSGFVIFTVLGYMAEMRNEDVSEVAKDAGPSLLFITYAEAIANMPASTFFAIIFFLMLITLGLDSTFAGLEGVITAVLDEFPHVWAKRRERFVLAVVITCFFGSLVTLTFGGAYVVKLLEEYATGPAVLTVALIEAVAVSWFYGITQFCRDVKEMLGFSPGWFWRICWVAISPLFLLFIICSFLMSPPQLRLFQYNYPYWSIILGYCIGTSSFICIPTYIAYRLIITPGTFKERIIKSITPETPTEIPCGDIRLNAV", "assay": "NIMH PDSP binding assay", "details": "primary screening, mean of N = 4 determinations", "text": "as §1, §2"}}, "note": "Values joined by “and” are separate entries in the source; they are usually repeats but may differ in a detail not shown here. Equal entries are not always repeated."}
{"smiles": "Cc1cc(/C=C2/SC(=S)NC2=O)c(C)n1-c1cccnc1", "note": "[optovin]", "values": [{"measurement": "dorsal fin response to 405 nm laser illumination", "setting": "adult zebrafish; intact adult zebrafish", "value": "rapid and reversible contraction of the fin"}, {"measurement": "optical control of dorsal fin contraction", "setting": "adult zebrafish; spinalized animals", "value": "preserved"}, {"measurement": "crossing the epidermis to reach underlying muscles at an effective concentration", "setting": "[1]", "value": "able to cross the epidermis"}, {"measurement": "Avg % inhibition (5-HT1B)", "setting": "5-HT1B", "value": 11.8, "unit": "%"}, {"measurement": "Avg % inhibition (5-HT1D)", "setting": "5-HT1D", "value": 12.9, "unit": "%"}, {"measurement": "Avg % inhibition (5-HT2A)", "setting": "5-HT2A", "value": "−1.1", "unit": "%"}, {"measurement": "Avg % inhibition (5-HT2B)", "setting": "5-HT2B", "value": "−2.0", "unit": "%"}, {"measurement": "Avg % inhibition (5-HT2C)", "setting": "5-HT2C", "value": 7.0, "unit": "%"}, {"measurement": "Avg % inhibition (5-HT3)", "setting": "5-HT3", "value": "−1.7", "unit": "%"}, {"measurement": "Avg % inhibition (5-HT7)", "setting": "5-HT7", "value": "−0.8", "unit": "%"}, {"measurement": "Avg % inhibition (A2B4)", "setting": "A2B4", "value": "−7.8", "unit": "%"}, {"measurement": "Avg % inhibition (A3B2)", "setting": "A3B2", "value": "−5.6", "unit": "%"}, {"measurement": "Avg % inhibition (A3B4)", "setting": "A3B4", "value": "−12.5", "unit": "%"}, {"measurement": "Avg % inhibition (A4B2)", "setting": "A4B2", "value": "−26.8", "unit": "%"}, {"measurement": "Avg % inhibition (A4B2**)", "setting": "A4B2", "value": "−29.1", "unit": "%"}, {"measurement": "Avg % inhibition (A4B4)", "setting": "A4B4", "value": "−8.8", "unit": "%"}, {"measurement": "Avg % inhibition (Alpha1D)", "setting": "Alpha1D", "value": 30.4, "unit": "%"}, {"measurement": "Avg % inhibition (Alpha2C)", "setting": "Alpha2C", "value": 3.3, "unit": "%"}, {"measurement": "Avg % inhibition (D1)", "setting": "D1", "value": 9.0, "unit": "%"}, {"measurement": "Avg % inhibition (D4)", "setting": "D4", "value": 0.2, "unit": "%"}, {"measurement": "Avg % inhibition (D5)", "setting": "D5", "value": 13.6, "unit": "%"}, {"measurement": "Avg % inhibition (DAT)", "setting": "DAT", "value": 1.5, "unit": "%"}, {"measurement": "Avg % inhibition (DOR)", "setting": "DOR", "value": "−7.2", "unit": "%"}, {"measurement": "Avg % inhibition (GABAA)", "setting": "GABAA", "value": "−2.2", "unit": "%"}, {"measurement": "Avg % inhibition (H2)", "setting": "H2", "value": 41.1, "unit": "%"}, {"measurement": "Avg % inhibition (KOR)", "setting": "KOR", "value": 10.9, "unit": "%"}, {"measurement": "Avg % inhibition (M1)", "setting": "M1", "value": "32.9% and 16.9%"}, {"measurement": "Avg % inhibition (M3)", "setting": "M3", "value": 9.1, "unit": "%"}, {"measurement": "Avg % inhibition (MOR)", "setting": "MOR", "value": "−0.7", "unit": "%"}, {"measurement": "Avg % inhibition (PBR)", "setting": "PBR", "value": "−11.3", "unit": "%"}, {"measurement": "Avg % inhibition (SERT)", "setting": "SERT", "value": 75.8, "unit": "%"}]}
